Assays:
[1] = target: recombinant poly(ADP-ribose) polymerase 1 (PARP1) (Homo sapiens, UniProt P09874); test: biochemical; conditions: inhibition of PARP1 enzyme activity, chemiluminescence
[2] = target: recombinant poly(ADP-ribose) polymerase 2 (PARP2) (Homo sapiens, UniProt Q9UGN5); test: biochemical; conditions: inhibition of PARP2 enzyme activity, chemiluminescence
MDA-MB-436 cells = test: Growth inhibition assay against BRCA mutant human breast cancer MDA-MB-436 cell line (CCK-8, 7 days); assay type: cell-based

Chain of recombinant poly(ADP-ribose) polymerase 1 (PARP1) (P09874 whole entry): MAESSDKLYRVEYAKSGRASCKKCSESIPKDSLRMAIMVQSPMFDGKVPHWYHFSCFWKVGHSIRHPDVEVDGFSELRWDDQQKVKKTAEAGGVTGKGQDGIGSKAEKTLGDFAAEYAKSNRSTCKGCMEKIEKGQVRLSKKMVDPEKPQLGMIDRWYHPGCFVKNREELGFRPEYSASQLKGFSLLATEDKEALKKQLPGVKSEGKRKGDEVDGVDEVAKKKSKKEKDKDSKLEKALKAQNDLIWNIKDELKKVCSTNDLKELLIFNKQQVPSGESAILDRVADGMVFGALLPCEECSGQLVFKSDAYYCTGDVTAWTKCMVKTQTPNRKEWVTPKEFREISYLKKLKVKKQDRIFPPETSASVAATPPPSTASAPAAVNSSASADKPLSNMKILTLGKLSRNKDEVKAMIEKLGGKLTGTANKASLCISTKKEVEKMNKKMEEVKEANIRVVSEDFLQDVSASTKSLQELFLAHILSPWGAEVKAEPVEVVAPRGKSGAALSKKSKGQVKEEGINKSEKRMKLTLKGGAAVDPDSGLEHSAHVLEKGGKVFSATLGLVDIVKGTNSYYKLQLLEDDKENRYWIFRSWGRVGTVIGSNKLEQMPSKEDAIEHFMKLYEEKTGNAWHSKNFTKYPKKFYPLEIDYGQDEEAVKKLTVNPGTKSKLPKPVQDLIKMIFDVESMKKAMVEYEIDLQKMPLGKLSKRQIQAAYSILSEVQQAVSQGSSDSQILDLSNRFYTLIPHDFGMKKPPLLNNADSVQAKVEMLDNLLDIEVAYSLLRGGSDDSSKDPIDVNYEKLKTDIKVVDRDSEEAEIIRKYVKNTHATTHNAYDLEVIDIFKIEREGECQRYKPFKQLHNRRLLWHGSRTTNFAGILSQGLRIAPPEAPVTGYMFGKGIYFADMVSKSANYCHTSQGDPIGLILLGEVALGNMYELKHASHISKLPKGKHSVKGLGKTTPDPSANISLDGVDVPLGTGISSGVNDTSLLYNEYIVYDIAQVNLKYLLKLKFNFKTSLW
Chain of recombinant poly(ADP-ribose) polymerase 2 (PARP2) (Q9UGN5 whole entry): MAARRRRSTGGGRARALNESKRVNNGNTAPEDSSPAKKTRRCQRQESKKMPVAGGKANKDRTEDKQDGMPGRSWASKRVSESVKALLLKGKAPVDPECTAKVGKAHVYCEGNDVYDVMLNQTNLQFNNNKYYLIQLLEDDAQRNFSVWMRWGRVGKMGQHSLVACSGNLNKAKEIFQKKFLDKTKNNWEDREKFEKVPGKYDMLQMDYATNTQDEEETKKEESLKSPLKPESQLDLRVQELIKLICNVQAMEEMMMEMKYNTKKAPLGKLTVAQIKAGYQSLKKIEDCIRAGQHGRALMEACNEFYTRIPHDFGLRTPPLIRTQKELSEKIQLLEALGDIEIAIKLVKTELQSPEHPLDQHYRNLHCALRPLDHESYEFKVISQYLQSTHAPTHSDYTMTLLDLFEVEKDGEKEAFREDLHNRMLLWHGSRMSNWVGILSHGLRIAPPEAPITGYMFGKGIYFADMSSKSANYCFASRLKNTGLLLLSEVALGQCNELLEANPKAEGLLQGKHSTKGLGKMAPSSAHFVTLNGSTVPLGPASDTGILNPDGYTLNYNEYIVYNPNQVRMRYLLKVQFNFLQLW

SMILES	IC50 [1]	IC50 [2]	IC50 (MDA-MB-436 cells)
CNC(=O)c1ccc(N2CCN(Cc3cc(F)c4c(c3)[nH]c(=O)c3c(C)cnn34)CC2)c(Cl)n1 [Example 77, 7-((4-(2-chloro-6-(methylcarbamoyl)pyridin-3-yl)piperazin-1-yl)methyl)-9-fluoro-3-methylpyrazolo[1,5-a]quinoxalin-4(5H)-one]	1.51 nM	241 nM	2.39 nM
CNC(=O)c1ccc(N2CCN(Cc3cc(F)c4c(c3)[nH]c(=O)c3c(C)cnn34)CC2)c(F)n1 [Example 76, 7-((4-(2-fluoro-6-(methylcarbamoyl)pyridin-3-yl)piperazin-1-yl)methyl)-9-fluoro-3-methylpyrazolo[1,5-a]quinoxalin-4(5H)-one]	2.1 nM	64.6 nM	1.37 nM
CNC(=O)c1ccc(N2CCN(Cc3cc(F)c4c(c3)[nH]c(=O)c3cc(C)nn34)CC2)c(Cl)n1 [Example 74, 7-((4-(2-chloro-6-(methylcarbamoyl)pyridin-3-yl)piperazin-1-yl)methyl)-9-fluoro-2-methylpyrazolo[1,5-a]quinoxalin-4(5H)-one]	1.52 nM	186 nM	1.58 nM
CNC(=O)c1ccc(N2CCN(Cc3ccc4c(c3)[nH]c(=O)c3ccnn34)CC2)c(C)n1 [Example 28, 7-((4-(2-methyl-6-(methylcarbamoyl)pyridin-3-yl)piperazin-1-yl)methyl)pyrazolo[1,5-a]quinoxalin-4(5H)-one]	0.77 nM	> 3000 nM	0.98 nM
CNC(=O)c1ccc(N2CCN(Cc3ccc4c(c3)[nH]c(=O)c3cncn34)CC2)c(F)n1 [Example 38, 7-((4-(2-fluoro-6-(methylcarbamoyl)pyridin-3-yl)piperazin-1-yl)methyl)imidazo[1,5-a]quinoxalin-4(5H)-one]	0.3 nM	59.9 nM	4.06 nM
CNC(=O)c1ccc(N2CCN(Cc3ccc4c(c3)[nH]c(=O)c3c(C)cnn34)CC2)c(Cl)n1 [Example 72, 7-((4-(2-chloro-6-(methylcarbamoyl)pyridin-3-yl)piperazin-1-yl)methyl)-3-methylpyrazolo[1,5-a]quinoxalin-4(5H)-one]	1.12 nM	110 nM	2.09 nM
CNC(=O)c1ccc(N2CCN(Cc3ccc4c5c(c(=O)[nH]c4c3)COC5)CC2)c(F)n1 [Example 2, 7-((4-(2-fluoro-6-(methylcarbamoyl)pyridin-3-yl)piperazin-1-yl)methyl)-3,5-dihydrofuro[3,4-c]quinolin-4(1H)-one]	1.91 nM	128 nM	2.65 nM
CNC(=O)c1ccc(N2CCN(Cc3cc(F)c4c(c3)[nH]c(=O)n3ccnc43)CC2)c(Cl)n1 [Example 119, 8-((4-(2-chloro-6-(methylcarbamoyl)pyridin-3-yl)piperazin-1-yl)methyl)-10-fluoroimidazo[1,2-c]quinazolin-5(6H)-one]	1.83 nM	9500 nM	16.2 nM
Cc1nc(C(=O)NC2CC2)ccc1N1CCN(Cc2cc(F)c3c(c2)[nH]c(=O)c2ccnn23)CC1 [Example 92, 7-((4-(2-methyl-6-(cyclopropylcarbamoyl)pyridin-3-yl)piperazin-1-yl)methyl)-9-fluoropyrazolo[1,5-a]quinoxalin-4(5H)-one]	1.38 nM	238 nM	5.05 nM
CNC(=O)c1ccc(N2CCN(Cc3ccc4c(c3)[nH]c(=O)c3cc(Cl)nn34)CC2)c(C)n1 [Example 100, 7-((4-(2-methyl-6-(methylcarbamoyl)pyridin-3-yl)piperazin-1-yl)methyl)-2-chloropyrazolo[1,5-a]quinoxalin-4(5H)-one]	0.95 nM	65.6 nM	0.68 nM
CNC(=O)c1ccc(N2CCN(Cc3ccc4c5c(c(=O)[nH]c4c3)COC5)CC2)c(Cl)n1 [Example 3, 7-((4-(2-chloro-6-(methylcarbamoyl)pyridin-3-yl)piperazin-1-yl)methyl)-3,5-dihydrofuro[3,4-c]quinolin-4(1H)-one]	1.33 nM	467 nM	5.01 nM
CNC(=O)c1ccc(N2CCN(Cc3cc(F)c4c(c3)[nH]c(=O)c3ccnn34)CC2)c(F)n1 [Example 44, 7-((4-(2-fluoro-6-(methylcarbamoyl)pyridin-3-yl)piperazin-1-yl)methyl)-9-fluoropyrazolo[1,5-a]quinoxalin-4(5H)-one]	1.76 nM	318 nM	2.17 nM
Cc1nc(C(=O)NC2CC2)ccc1N1CCN(Cc2ccc3c(c2)[nH]c(=O)c2cccn23)CC1 [Example 59, 7-((4-(2-methyl-6-(cyclopropylcarbamoyl)pyridin-3-yl)piperazin-1-yl)methyl)pyrrolo[1,2-a]quinoxalin-4(5H)-one]	1.39 nM	21.9 nM	0.99 nM
CNC(=O)c1ccc(N2CCN(Cc3cc(F)c4c(c3)[nH]c(=O)c3cc(C)nn34)CC2)c(F)n1 [Example 73, 7-((4-(2-fluoro-6-(methylcarbamoyl)pyridin-3-yl)piperazin-1-yl)methyl)-9-fluoro-2-methylpyrazolo[1,5-a]quinoxalin-4(5H)-one]	1.96 nM	78.1 nM	1.77 nM
CNC(=O)c1ccc(N2CCN(Cc3ccc4c(c3)[nH]c(=O)c3ccnn34)CC2)c(F)n1 [Example 36, 7-((4-(2-fluoro-6-(methylcarbamoyl)pyridin-3-yl)piperazin-1-yl)methyl)pyrazolo[1,5-a]quinoxalin-4(5H)-one]	0.44 nM	41.4 nM	1.11 nM
CNC(=O)c1ccc(N2CCN(Cc3ccc4c(c3)[nH]c(=O)c3cc(C)nn34)CC2)c(C)n1 [Example 57, 7-((4-(2-methyl-6-(methylcarbamoyl)pyridin-3-yl)piperazin-1-yl)methyl)-2-methylpyrazolo[1,5-a]quinoxalin-4(5H)-one]	1.77 nM	67.9 nM	1.43 nM
CNC(=O)c1ccc(N2CCN(Cc3ccc4c(c3)[nH]c(=O)c3c(C)c(C)nn34)CC2)c(C)n1 [Example 101, 7-((4-(2-methyl-6-(methylcarbamoyl)pyridin-3-yl)piperazin-1-yl)methyl)-2,3-dimethylpyrazolo[1,5-a]quinoxalin-4(5H)-one]	4.43 nM	35.6 nM	2.48 nM
CNC(=O)c1ccc(N2CCN(Cc3ccc4c(c3)[nH]c(=O)c3cc(C)nn34)CC2)c(F)n1 [Example 69, 7-((4-(2-fluoro-6-(methylcarbamoyl)pyridin-3-yl)piperazin-1-yl)methyl)-2-methylpyrazolo[1,5-a]quinoxalin-4(5H)-one]	2.32 nM	49.9 nM	1.08 nM
Cc1nc(C(=O)NC2CC2)ccc1N1CCN(Cc2ccc3c(c2)[nH]c(=O)c2ccnn23)CC1 [Example 62, 7-((4-(2-methyl-6-(cyclopropylcarbamoyl)pyridin-3-yl)piperazin-1-yl)methyl)pyrazolo[1,5-a]quinoxalin-4(5H)-one]	0.29 nM	150 nM	3.42 nM
CNC(=O)c1ccc(N2CCN(Cc3cc(F)c4c(c3)[nH]c(=O)c3c(C)cnn34)CC2)c(C)n1 [Example 78, 7-((4-(2-methyl-6-(methylcarbamoyl)pyridin-3-yl)piperazin-1-yl)methyl)-9-fluoro-3-methylpyrazolo[1,5-a]quinoxalin-4(5H)-one]	1.38 nM	153 nM	1 nM

From US20240368169A1 (priority 2021, published 2024)
